Test system: Cerambycid
Format: in vivo, cerambycids
Conditions: for Number of Attacks/0.3 m bole section at 3 m after 24 days: Cerambycid: 576 h
Description: After 5 weeks post-injection (May 28), frills were cut with a hatchet into the sapwood between the injection points near the base of the tree. A cellulose. sponge was inserted into each cut and loaded with I0 ml of a 4:1 mix of sodium N-methyldithiocarbamate (MS) (Woodfume®; Osmose, Inc., Buffalo, N.Y.) plus dimethyl sulfoxide (DMSO) (Aldrich Chemical) (Roton 1987, Strom et al. 2004). This method reduces resin to near zero in 1-2 weeks. The intent was to stress the tree and make it susceptible to attack by bark beetles without killing it. Pheromone packets containing racemic ipsdienol+lanerione, ipsenol or cis-verbenol were attached (June 7) atop 3 m stakes evenly spaced in between and around the study trees to encourage attack by the three Ips engraver species. […] Thus, ipsdienol and cis-verbenol pheromone baits were deployed on all stakes on June 17th. The baits were changed every 4 weeks.
Trial 2. Three weeks after pheromone deployment (June 28), each tree was evaluated by marking a 30 cm (1 ft) section of bole at a height of 3 m (10 ft). All visible Ips attacks and cerambycid egg niches were counted within the marked area. The number of trees with fading crowns also was recorded. Thereafter, the trees were evaluated weekly for crown fading. When mortality did occur, the trees were felled and two bolts taken and evaluated for attack success and gallery length as described in Trial 1. All remaining trees were felled 66 days (Aug. 9) after initial pheromone deployment when no additional trees had died for 2 weeks. Treatment efficacy was determined by comparing tree survival, beetle attacks and egg gallery length on treated and untreated bolts. As before, data were transformed and analyzed by GLM and the Fisher's Protected LSD test using the Statview statistical program.

| SMILES | Borer Feeding Area (% of Total Area) | Number of Attacks/0.3 m bole section at 3 m after 24 days: Cerambycid [a] |
| --- | --- | --- |
| N#Cc1nn(-c2c(Cl)cc(C(F)(F)F)cc2Cl)c(N)c1[S+]([O-])C(F)(F)F (stereo not drawn) [Fip, 5-amino-3-cyano-1-(2,6-dichloro-4-trifluoromethylphenyl)-4-trifluoromethylsulfinylpyrazole] | 0.0 % of Total Area | 1.3 |
| O=[N+]([O-])NC1=NCCN1Cc1ccc(Cl)nc1 [Imid] |  | 4.7 |

Reference: patent US20080039515A1, “Arylpyrazoles And Methods Of Using Same For Control Of Insect Pests That Bore Into Trees” (The Texas A&M University System, priority 2004, published 2008)
